Here are results for 27 compounds from BindingDB's records for PubMed 8102785 (University of Pennsylvania, 1993).

Each structure is given as a SMILES string. *1 amine or outer side, *2 acyl side, *3 side chain or, on linkers, in order; H or OH if unused. Where a SMILES comes first, the peptide text is derived from it. Bridges are numbered along the chain shown (N, C = ends). [ ]: non-standard residue; d: D form. The star is where a group is joined. ξ: configuration not given here. Phe(4-NO2) = N[C@@H](Cc1ccc([N+](=O)[O-])cc1)C(=O)O; X3 = C[C@@H](C(=O)[*:2])N(Cc1ccc2ccccc2c1)[*:1]; NH(1-naphthylmethyl) = c1ccc2c(CN*)cccc2c1; Phe(4-Cl) = N[C@@H](Cc1ccc(Cl)cc1)C(=O)O; dPhe(4-Cl) = N[C@H](Cc1ccc(Cl)cc1)C(=O)O; 1Nal = N[C@@H](Cc1cccc2ccccc12)C(=O)O; 2Nal = N[C@@H](Cc1ccc2ccccc2c1)C(=O)O; d1Nal = N[C@H](Cc1cccc2ccccc12)C(=O)O; d2Nal = N[C@H](Cc1ccc2ccccc2c1)C(=O)O; dThr(3ξ) = CC(O)[C@@H](N)C(=O)O; X1 = O=C(C(N[*:1])S[*:3])[*:2]; Thr(3ξ) = CC(O)[C@H](N)C(=O)O; NMeA = CN[C@@H](C)C(=O)O; ξF = NC(Cc1ccccc1)C(=O)O; Abu = CC[C@H](N)C(=O)O; X2 = CC(O)[C@H](CO)N*; Ahp = NCCCCCCC(=O)O; ξC = NC(CS)C(=O)O; Mpa = O=C(O)CCS

Somatostatin receptor type 4, sequence (P30937 whole entry): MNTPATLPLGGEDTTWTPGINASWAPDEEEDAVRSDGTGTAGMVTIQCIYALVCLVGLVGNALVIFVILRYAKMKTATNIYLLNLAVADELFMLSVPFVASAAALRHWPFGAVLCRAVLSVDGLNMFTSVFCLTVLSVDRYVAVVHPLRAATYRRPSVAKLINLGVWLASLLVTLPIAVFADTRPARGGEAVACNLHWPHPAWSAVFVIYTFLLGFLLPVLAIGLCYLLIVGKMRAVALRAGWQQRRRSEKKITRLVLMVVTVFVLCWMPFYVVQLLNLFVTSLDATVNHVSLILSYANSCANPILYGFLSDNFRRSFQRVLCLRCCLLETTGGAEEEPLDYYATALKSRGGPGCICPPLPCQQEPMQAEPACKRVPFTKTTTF

The test has as its target Somatostatin receptor type 4 (Rattus norvegicus, UniProt P30937).
The Ki is a measure of affinity in units of concentration, obtained from inhibition or displacement. Low values mean a stronger hold on the target, high ones a looser hold on the target. With `CC(C)[C@@H]1NC(=O)[C@@H](CCCCN)NC(=O)[C@@H](Cc2c[nH]c3ccccc23)NC(=O)[C@@H](Cc2ccc(O)cc2)NC(=O)[C@@H](C)N(C)C(=O)[C@@H](Cc2ccccc2)NC1=O`, the affinity, expressed as Ki, was 26 nM.
Then `CC(O)[C@H](CO)NC(=O)[C@@H]1CSSCC(NC(=O)C(N)Cc2ccccc2)C(=O)N[C@H](Cc2ccccc2)C(=O)N[C@H](Cc2c[nH]c3ccccc23)C(=O)N[C@H](CCCCN)C(=O)N[C@H](C(C)O)C(=O)N1` (some centres not stated) (H-[ξF][ξC][dF][dW][dK][dThr(3ξ)]C-X2; disulfide 2-7), with 0.57 nM; and `C[C@@H](O)[C@@H]1NC(=O)[C@H](CCCCN)NC(=O)[C@@H](Cc2c[nH]c3ccccc23)NC(=O)[C@H](Cc2ccccc2)NC(=O)[C@@H]2CCCN2C(=O)[C@H](Cc2ccccc2)NC1=O` (cyclo(PF[dW]KTF)), with 3.2 nM; and `CC(C)[C@@H]1NC(=O)[C@H](CCCCN)NC(=O)[C@@H](Cc2c[nH]c3ccccc23)NC(=O)[C@H](Cc2ccc(O)cc2)NC(=O)[C@@H](NC(=O)[C@H](N)Cc2ccc3ccccc3c2)CSSC[C@@H](C(=O)N[C@H](C(N)=O)[C@@H](C)O)NC1=O` [3-(2-Naphtyl)-D-Ala-L-Cys(1)-L-Tyr-D-Trp-L-Lys-L-Val-L-Cys(1)-L-Thr-NH2], with 0.1 nM.
Consider `C[C@@H](O)[C@@H]1NC(=O)[C@H](CCCCN)NC(=O)[C@@H](Cc2c[nH]c3ccccc23)NC(=O)[C@H](Cc2ccccc2)NC(=O)[C@@H]2CSSCC(NC1=O)C(=O)NCCCCCCC(=O)N2` [(1R,4S,7S,10R,13S,16R)-4-[(R)-1-Hydroxyethyl]-7-(4-aminobutyl)-10-(1H-indole-3-ylmethyl)-13-benzyl-28,29-dithia-2,5,8,11,14,17,25-heptaazabicyclo[14.10.4]triacontane-3,6,9,12,15,18,26-heptone] (cyclo([Ahp]CF[dW]KT[ξC]); disulfide 2-7), for which the Ki amounted to 1.2 nM.
`CC1NC(=O)C(CCCCN)NC(=O)C(Cc2c[nH]c3ccccc23)NC(=O)C(Cc2ccc(O)cc2)NC(=O)C(NC(=O)C(N)Cc2ccccc2)CSSCC(C(=O)NCc2cccc3ccccc23)NC1=O` (configuration not stated) [BIM 23034] (H-FCYWKAC-{NH(1-naphthylmethyl)}; disulfide 2-7; configuration not given here): the affinity, expressed as Ki, was 0.19 nM.
The compound `CC(C)[C@@H]1NC(=O)[C@H](CCCCN)NC(=O)[C@@H](Cc2c[nH]c3ccccc23)NC(=O)[C@H](Cc2ccc(O)cc2)NC(=O)[C@@H](NC(=O)[C@H](N)Cc2ccc3ccccc3c2)CSSC[C@@H](C(=O)N[C@@H](Cc2ccc3ccccc3c2)C(N)=O)NC1=O` [BIM 23042] (H-[d2Nal]CY[dW]KVC[2Nal]-NH2; disulfide 2-7) displayed a Ki of 5.2 nM. Against the preceding compound, the Ki is about 27-fold higher.
`CC(O)[C@H](NC(=O)[C@H](CCCCN)NC(=O)[C@@H](Cc1c[nH]c2ccccc12)NC(=O)[C@H](Cc1ccccc1)NC(=O)[C@@H](C)NC(=O)[C@@H](N)Cc1ccccc1)C(=O)N[C@@H](C)C(=O)N[C@H](C(N)=O)[C@@H](C)O` (some centres not stated) [BIM 23051] (H-F[dA]F[dW]K[Thr(3ξ)]AT-NH2): the Ki was 53 nM. This Ki is about 10-fold higher than that of the compound before.
As to `CC(C)[C@H](NC(=O)[C@H](CCCCN)NC(=O)[C@@H](Cc1c[nH]c2ccccc12)NC(=O)[C@H](Cc1ccc(O)cc1)NC(=O)[C@H](Cc1ccccc1)NC(=O)[C@H](N)Cc1ccccc1)C(=O)N[C@@H](Cc1ccccc1)C(=O)N[C@H](Cc1cccc2ccccc12)C(N)=O` [BIM 23056] (H-[dF]FY[dW]KVF[d1Nal]-NH2), the affinity, expressed as Ki, was 43 nM.
In turn, `CC(C)[C@H](NC(=O)[C@H](CCCCN)NC(=O)[C@@H](Cc1c[nH]c2ccccc12)NC(=O)[C@H](Cc1ccc(O)cc1)NC(=O)[C@H](Cc1ccc(Cl)cc1)NC(=O)[C@H](N)Cc1ccccc1)C(=O)N[C@@H](Cc1ccccc1)C(=O)N[C@H](C(N)=O)[C@@H](C)O` [BIM 23057] (H-[dF][Phe(4-Cl)]Y[dW]KVFT-NH2) yielded a Ki of 8.1 nM. Compared with the last compound, the Ki is about 5.3-fold lower.
Then `CC(O)C1NC(=O)C(CCCCN)NC(=O)C(Cc2c[nH]c3ccccc23)NC(=O)C(Cc2ccc(O)cc2)NC(=O)C(NC(=O)C(N)Cc2ccccc2)CSSCC(C(=O)NCc2cccc3ccccc23)NC1=O` (configuration not stated) [BIM 23060] (H-FCYWKTC-{NH(1-naphthylmethyl)}; disulfide 2-7; configuration not given here), with 0.09 nM.
Then `CC(C)[C@H](NC(=O)[C@H](CCCCN)NC(=O)[C@@H](Cc1c[nH]c2ccccc12)NC(=O)[C@H](Cc1ccc(O)cc1)NC(=O)[C@H](Cc1ccc(Cl)cc1)NC(=O)[C@@H](N)Cc1ccccc1)C(=O)N[C@@H](Cc1ccccc1)C(=O)N[C@@H](Cc1ccc2ccccc2c1)C(N)=O` [BIM 23063] (H-F[Phe(4-Cl)]Y[dW]KVF[2Nal]-NH2), with 43 nM.
`CC(C)[C@H](NC(=O)[C@H](CCCCN)NC(=O)[C@@H](Cc1c[nH]c2ccccc12)NC(=O)[C@H](Cc1ccc(O)cc1)NC(=O)[C@H](Cc1ccc(Cl)cc1)NC(=O)[C@@H](N)Cc1ccccc1)C(=O)N[C@@H](Cc1ccccc1)C(=O)N[C@H](C)C(N)=O` [BIM 23064] (H-F[Phe(4-Cl)]Y[dW]KVF[dA]-NH2) gave a Ki of 17 nM.
The compound `CC(C)[C@H](NC(=O)[C@H](CCCCN)NC(=O)[C@@H](Cc1c[nH]c2ccccc12)NC(=O)[C@H](Cc1ccc(O)cc1)NC(=O)[C@H](Cc1ccc([N+](=O)[O-])cc1)NC(=O)[C@H](N)Cc1ccccc1)C(=O)N[C@@H](Cc1ccccc1)C(=O)N[C@H](C(N)=O)[C@@H](C)O` [BIM 23066] (H-[dF][Phe(4-NO2)]Y[dW]KVFT-NH2) had a Ki of 2.4 nM.
The same measure for `CC[C@H](NC(=O)[C@@H](N)Cc1ccc(Cl)cc1)C(=O)N[C@@H](Cc1ccc(O)cc1)C(=O)N[C@H](Cc1c[nH]c2ccccc12)C(=O)N[C@@H](CCCCN)C(=O)N[C@H](C(=O)N[C@@H](C)C(=O)N[C@H](Cc1ccccc1)C(N)=O)C(C)C` [BIM 23067] (H-[Phe(4-Cl)][Abu]Y[dW]KVA[dF]-NH2): 15 nM; for `C[C@@H](O)[C@H](NC(=O)[C@H](Cc1ccccc1)NC(=O)[C@@H](NC(=O)[C@H](CCCCN)NC(=O)[C@@H](Cc1c[nH]c2ccccc12)NC(=O)[C@H](Cc1ccc(O)cc1)NC(=O)[C@H](Cc1ccc(Cl)cc1)NC(=O)[C@H](N)Cc1ccccc1)[C@@H](C)O)C(N)=O` [BIM 23068] (H-[dF][Phe(4-Cl)]Y[dW]KTFT-NH2): 1.1 nM; for `CC(O)[C@H](NC(=O)[C@H](CCCCN)NC(=O)[C@@H](Cc1c[nH]c2ccccc12)NC(=O)[C@H](Cc1ccc(O)cc1)NC(=O)[C@@H](C)NC(=O)[C@@H](N)Cc1ccccc1)C(=O)N[C@@H](C)C(=O)N[C@@H](Cc1cccc2ccccc12)C(N)=O` (some centres not stated) [BIM 23070] (H-F[dA]Y[dW]K[Thr(3ξ)]A[1Nal]-NH2): 10 nM.
In the case of `CC[C@@H]1NC(=O)[C@H](CCCCN)NC(=O)[C@@H](Cc2c[nH]c3ccccc23)NC(=O)[C@H](Cc2ccc(O)cc2)NC(=O)[C@H](C)N(C)C(=O)[C@H](Cc2ccccc2)NC1=O` [BIM-23027] (cyclo([Abu]F[NMeA]Y[dW]K)), the Ki was determined as 6.2 nM. Compared with the last compound, the Ki is about 1.6-fold lower.
As for `CC(C)[C@H](NC(=O)[C@H](CCCCN)NC(=O)[C@@H](Cc1c[nH]c2ccccc12)NC(=O)[C@H](Cc1ccc(O)cc1)NC(=O)[C@H](Cc1ccccc1)NC(=O)[C@@H](N)Cc1ccccc1)C(=O)N[C@@H](Cc1ccccc1)C(=O)N[C@H](C(N)=O)[C@@H](C)O` [BIM-23058] (H-FFY[dW]KVFT-NH2), the Ki stood at 1.2 nM.
The same measure for `CC(C)[C@@H]1NC(=O)[C@H](CCCCN)NC(=O)[C@@H](Cc2c[nH]c3ccccc23)NC(=O)[C@H](Cc2ccc(O)cc2)NC(=O)CCSSC(C(=O)N[C@@H](Cc2ccccc2)C(N)=O)NC1=O` (some centres not stated) [CAS_117580-24-2] ([Mpa]Y[dW]KV[X1]F-NH2; disulfide 1-6): 3.9 nM; for `C[C@@H](O)[C@H](NC(=O)[C@H](Cc1ccccc1)NC(=O)[C@@H](NC(=O)[C@H](CCCCN)NC(=O)[C@@H](Cc1c[nH]c2ccccc12)NC(=O)[C@H](Cc1ccccc1)NC(=O)[C@H](Cc1ccccc1)NC(=O)[C@H](N)Cc1ccccc1)[C@@H](C)O)C(N)=O` [CAS_133073-82-2] (H-[dF]FF[dW]KTFT-NH2): 0.002 nM.
The same measure for `C[C@@H](O)[C@H](NC(=O)[C@H](Cc1ccccc1)NC(=O)[C@@H](NC(=O)[C@H](CCCCN)NC(=O)[C@@H](Cc1c[nH]c2ccccc12)NC(=O)[C@H](Cc1ccc(O)cc1)NC(=O)[C@H](Cc1ccc(Cl)cc1)NC(=O)[C@H](N)Cc1ccc2ccccc2c1)[C@@H](C)O)C(N)=O` [CAS_150155-63-8] (H-[d2Nal][Phe(4-Cl)]Y[dW]KTFT-NH2): 9.5 nM.
The same measure for `CC(C)[C@H](NC(=O)[C@H](CCCCN)NC(=O)[C@@H](Cc1c[nH]c2ccccc12)NC(=O)[C@H](Cc1ccc(O)cc1)NC(=O)[C@H](C)NC(=O)[C@H](N)Cc1ccc(Cl)cc1)C(=O)N[C@@H](C)C(=O)N[C@@H](Cc1ccc2ccccc2c1)C(N)=O` [CAS_150155-67-2] (H-[dPhe(4-Cl)]AY[dW]KVA[2Nal]-NH2): 14 nM; for `CC(C)C1NC(=O)C(CCCCN)NC(=O)C(Cc2c[nH]c3ccccc23)NC(=O)C(Cc2ccc(O)cc2)NC(=O)C(C)N(C)C(=O)C(Cc2ccccc2)NC1=O` (configuration not stated) [CAS_3086456]: 5.5 nM; for `CC(C)[C@H](NC(=O)[C@H](CCCCN)NC(=O)[C@@H](Cc1c[nH]c2ccccc12)NC(=O)[C@H](Cc1ccc(O)cc1)NC(=O)[C@H](C)NCc1ccc2ccccc2c1)C(=O)N[C@@H](C)C(=O)N[C@H](C(N)=O)[C@@H](C)O` [D-Nal-Ala-Tyr-D-Trp-Lys-Val-Ala-Thr-NH2] (H-[X3]Y[dW]KVAT-NH2): 146 nM.
Regarding `C[C@@H](O)[C@H](NC(=O)[C@@H]1CSSC[C@H](NC(=O)[C@H](N)Cc2ccc3ccccc3c2)C(=O)N[C@@H](Cc2ccc(O)cc2)C(=O)N[C@H](Cc2c[nH]c3ccccc23)C(=O)N[C@@H](CCCCN)C(=O)N[C@@H]([C@@H](C)O)C(=O)N1)C(N)=O` [D-Nal-c[Cys-Tyr-D-Trp-Lys-Thr-Cys]-Thr-NH2], the Ki turned out to be 0.08 nM.
Then `CC(C)[C@H](NC(=O)[C@H](CCCCN)NC(=O)[C@@H](Cc1c[nH]c2ccccc12)NC(=O)[C@H](Cc1ccc(O)cc1)NC(=O)[C@H](C)NC(=O)[C@H](N)Cc1ccccc1)C(=O)N[C@@H](C)C(=O)N[C@H](Cc1ccc2ccccc2c1)C(N)=O` [D-Phe-AIa-Tyr-D-Trp-Lys-Val-Ala-D-Nal-NH2] (H-[dF]AY[dW]KVA[d2Nal]-NH2), with 5.9 nM.
